Results from PubChem BioAssay (NCI).
“And” between values parts separate entries of the source, which are not always exact repeats. Identical values can stand only once.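 48-hour exposure; five concentrations; linearly interpolated endpoints. Abbreviation: GI50, concentration required for 50% inhibition of growth. At the TGI there is no net growth.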

Legend:
Test in all cases: NCI tumour cell line growth inhibition, 48 h
[1] = system: SNB-78 CNS
[2] = system: M19-MEL melanoma
[3] = system: P388/ADR leukemia
[4] = system: SN12K1 renal
[5] = system: HOP-18 NSCLC
[6] = system: KM20L2 colon
[7] = system: DMS 114 small cell lung
[8] = system: DMS 273 small cell lung

| SMILES | TGI [1] | TGI [2] | TGI [3] | TGI [4] | TGI [5] | TGI [6] | TGI [7] | TGI [8] | GI50 [5] | GI50 [6] |
| --- | --- | --- | --- | --- | --- | --- | --- | --- | --- | --- |
| CC(NCCS(=O)(=O)O)C(=O)O (configuration not stated) | > 100 µM | > 100 µM | > 100 µM | > 100 µM | > 100 µM | > 100 µM | > 100 µM | > 100 µM |  |  |
| Cc1c2cc[n+](C)cc2c(C)c2c1[nH]c1ccccc12 |  | 3.34 µM and 2.32 µM | > 77.4 µM | 4.3 µM and 4.19 µM | 21.3 µM and 32 µM | 33.4 µM and 19.9 µM | 1.88 µM and 1.99 µM | 12.3 µM and 14.2 µM | 5.47 µM | 4.95 µM and 2.34 µM |
